Experimental data taken from US9776962B2, “Aromatic compounds with GPR40 agonistic activity” (TAKEDA PHARMACEUTICAL COMPANY LIMITED, priority 2013, dated 2017).

Each compound was assayed against T1, human GPR40 (Homo sapiens, UniProt O14842) (assay: Evaluation of human GPR40 agonist activity with increase in intracellular Ca2+ concentration as an index (FLIPR)). Settings: test compound 1 μM; CHO(dhfr−) cells stably expressing human GPR40; 100% = 10 μM compound of Example 153, 0% = DMSO.
T1 construct: expressed in transfected cells
T1 sequence (O14842 whole entry): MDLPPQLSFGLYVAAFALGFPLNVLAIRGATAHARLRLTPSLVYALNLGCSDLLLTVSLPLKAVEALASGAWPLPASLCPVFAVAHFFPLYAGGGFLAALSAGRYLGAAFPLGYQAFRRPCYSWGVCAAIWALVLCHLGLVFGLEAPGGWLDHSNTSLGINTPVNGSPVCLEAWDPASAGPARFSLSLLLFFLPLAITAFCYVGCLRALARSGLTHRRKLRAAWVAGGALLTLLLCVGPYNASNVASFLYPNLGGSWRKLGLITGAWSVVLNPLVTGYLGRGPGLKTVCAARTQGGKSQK
Format: cell-based
Procedure, shortened: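 CHO(dhfr−) cells stably expressing full-length human GPR40 were loaded with Ca2+ probe for 1 h at room temperature, then given test compound at 1 μM final. Fluorescence was followed on FLIPR, with activity scaled to a reference agonist at 10 μM (100%) and DMSO (0%).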

| Compound | activation at 1 µM | Activity (human GPR40 agonist activity) |
| --- | --- | --- |
| COc1ccc(C(=O)N(CC(C)(C)C)c2cccnn2)c(N2CCC(COc3cc(C(CC(=O)O)C4CC4)ccn3)CC2)c1 (stereo not shown) [Example 179, 3-cyclopropyl-3-(2-((1-(2-((2,2-dimethylpropyl)(pyridazin-3-yl)carbamoyl)-5-methoxyphenyl)piperidin-4-yl)methoxy)pyridin-4-yl)propanoic acid] | 84% |  |
| COc1ccc(C(=O)N2CCOCC2Cc2ccccc2)c(N2CCC(COc3cc(C(CC(=O)O)C4CC4)ccn3)CC2)c1 (stereo not shown) [Example 201, 3-(2-((1-(2-((3-benzylmorpholin-4-yl)carbonyl)-5-methoxyphenyl)piperidin-4-yl)methoxy)pyridin-4-yl)-3-cyclopropylpropanoic acid] | 92% |  |
| COc1ccc(C(=O)N(CC(C)(C)C)c2cncc(Cl)n2)c(N2CCC(COc3cc(C(CC(=O)O)C4CC4)ccn3)CC2)c1 (stereo not shown) [Example 180, 3-(2-((1-(2-((6-chloropyrazin-2-yl)(2,2-dimethylpropyl)carbamoyl)-5-methoxyphenyl)piperidin-4-yl)methoxy)pyridin-4-yl)-3-cyclopropylpropanoic acid] | 105% |  |
| COc1ccc(C(=O)Nc2ccccn2)c(N2CCC(COc3cc(C(CC(=O)O)C4CC4)ccn3)CC2)c1 (stereo not shown) [Example 242, 3-cyclopropyl-3-(2-((1-(5-methoxy-2-(pyridin-2-ylcarbamoyl)phenyl)piperidin-4-yl)methoxy)pyridin-4-yl)propanoic acid] | 93% |  |
| COc1ccc(C(=O)N(CC(C)C)c2ccc(OC)nc2)c(N2CCC(COc3cc(C(CC(=O)O)C4CC4)ccn3)CC2)c1 (stereo not shown) [Example 140, 3-cyclopropyl-3-(2-((1-(5-methoxy-2-((6-methoxypyridin-3-yl)(2-methylpropyl)carbamoyl)phenyl)piperidin-4-yl)methoxy)pyridin-4-yl)propanoic acid] | 93% |  |
| COc1ccc(C(=O)N(CC(C)(C)C)c2ncccn2)c(N2CCC(COc3cc(C(CC(=O)O)C4CC4)c(F)cn3)CC2)c1 (stereo not shown) [Example 273, 3-cyclopropyl-3-(2-((1-(2-((2-dimethylpropyl)-(pyrimidin-2-yl)-carbamoyl)-5-methoxy-phenyl)piperidin-4-yl)-methoxy)-5-fluoropyridin-4-yl)propanoic acid] | 101% |  |
| COc1ccc(C(=O)N(c2ccccn2)C2CC(F)(F)C2)c(N2CCC(COc3cc(C(CC(=O)O)C4CC4)ccn3)CC2)c1 (stereo not shown) [Example 165, 3-cyclopropyl-3-(2-((1-(2-((3,3-difluorocyclobutyl)(pyridin-2-yl)carbamoyl)-5-methoxyphenyl)piperidin-4-yl)methoxy)pyridin-4-yl)propanoic acid] | 97% |  |
| COc1ccc(C(=O)N(CC(F)(F)F)c2cncc(C)c2)c(N2CCC(COc3cc(C(CC(=O)O)C4CC4)ccn3)CC2)c1 (stereo not shown) [Example 175, 3-cyclopropyl-3-(2-((1-(5-methoxy-2-((5-methylpyridin-3-yl)(2,2,2-trifluoroethyl)carbamoyl)phenyl)piperidin-4-yl)methoxy)pyridin-4-yl)propanoic acid] | 90% |  |
| COc1ccc(C(=O)N(CC(C)C)c2ccccn2)c(N2CCC(COc3cc(C(CC(=O)O)C4CC4)ccn3)CC2)c1 (stereo not shown) [Example 113, 3-cyclopropyl-3-(2-((1-(5-methoxy-2-((2-methylpropyl)(pyridin-2-yl)carbamoyl)phenyl)piperidin-4-yl)methoxy)pyridin-4-yl)propanoic acid] | 102% |  |
| COc1ccc(C(=O)N(CC(C)C)c2cccc(C)n2)c(N2CCC(COc3cc(C(CC(=O)O)C4CC4)ccn3)CC2)c1 (stereo not shown) [Example 122, 3-cyclopropyl-3-(2-((1-(5-methoxy-2-((2-methylpropyl)(6-methylpyridin-2-yl)carbamoyl)phenyl)piperidin-4-yl)methoxy)pyridin-4-yl)propanoic acid] | 101% |  |
| COc1ccc(C(=O)N(CC(F)(F)F)c2cncc(C(F)(F)F)c2)c(N2CCC(COc3cc(C(CC(=O)O)C4CC4)ccn3)CC2)c1 (stereo not shown) [Example 236, 3-cyclopropyl-3-(2-((1-(5-methoxy-2-((2,2,2-trifluoroethyl) (5-(trifluoromethyl)pyridin-3-yl)carbamoyl)-phenyl)piperidin-4-yl)methoxy)pyridin-4-yl)propanoic acid] | 91% |  |
| COc1ccc(C(=O)N(CC(C)(C)OC(C)C)c2ccccn2)c(N2CCC(COc3cc(C(CC(=O)O)C4CC4)ccn3)CC2)c1 (stereo not shown) [Example 160, 3-cyclopropyl-3-(2-((1-(2-((2-isopropoxy-2-methylpropyl)(pyridin-2-yl)carbamoyl)-5-methoxyphenyl)piperidin-4-yl)methoxy)pyridin-4-yl)propanoic acid] | 97% |  |
| Cc1cccc(N(CC(C)(C)C)C(=O)c2ccc(S(C)(=O)=O)cc2N2CCC(COc3cc(C(CC(=O)O)C4CC4)ccn3)CC2)n1 (stereo not shown) [Example 264, 3-cyclopropyl-3-(2-((1-(2-((2,2-dimethylpropyl)(6-methylpyridin-2-yl)carbamoyl)-5-(methylsulfonyl)phenyl)piperidin-4-yl)methoxy)pyridin-4-yl)propanoic acid] | 52% |  |
| Cc1cccc(N(CC(C)(C)C)C(=O)c2c(F)cc(Cl)cc2N2CCC(COc3cc(C(CC(=O)O)C4CC4)ccn3)CC2)n1 (stereo not shown) [Example 265, 3-(2-((1-(5-chloro-2-((2,2-dimethylpropyl)(6-methylpyridin-2-yl)carbamoyl)-3-fluorophenyl)piperidin-4-yl)methoxy)pyridin-4-yl)-3-cyclopropylpropanoic acid] | 85% |  |
| COc1ccc(C(=O)N(CC(C)(C)C)C2CCCN(CC(F)(F)F)C2)c(N2CCC(COc3cc(C(CC(=O)O)C4CC4)ccn3)CC2)c1 (stereo not shown) [Example 233, 3-cyclopropyl-3-(2-((1-(2-((2,2-dimethylpropyl) (1-(2,2,2-trifluoroethyl)piperidin-3-yl)carbamoyl)-5-methoxyphenyl)piperidin-4-yl)methoxy)pyridin-4-yl)propanoic acid] | 85% |  |
| CCc1ccc(C(=O)N(CC(C)(C)C)c2ccccn2)c(N2CCC(COc3cccc(C(CC(=O)O)C4CC4)c3)CC2)c1 (stereo not shown) [Example 56, 3-cyclopropyl-3-(3-((1-(2-((2,2-dimethylpropyl)(pyridin-2-yl)carbamoyl)-5-ethylphenyl)piperidin-4-yl)methoxy)phenyl)propanoic acid] | 83% |  |

Next, values leading:

| activation at 1 µM | Activity (human GPR40 agonist activity) | Compound |
| --- | --- | --- |
| 99% |  | COc1ccc(C(=O)N(CC(C)(C)C)c2cc(C)nc(C)n2)c(N2CCC(COc3cc(C(CC(=O)O)C4CC4)ccn3)CC2)c1 (stereo not shown) [Example 228, 3-cyclopropyl-3-(2-((1-(2-((2,2-dimethylpropyl) (2,6-dimethylpyrimidin-4-yl)carbamoyl)-5-methoxyphenyl)piperidin-4-yl)methoxy)pyridin-4-yl)propanoic acid] |
| 102% |  | COc1ccc(C(=O)N(CC(F)(F)C(F)F)c2ccccn2)c(N2CCC(COc3cc(C(CC(=O)O)C4CC4)ccn3)CC2)c1 (stereo not shown) [Example 138, 3-cyclopropyl-3-(2-((1-(5-methoxy-2-(pyridin-2-yl(2,2,3,3-tetrafluoropropyl)carbamoyl)phenyl)piperidin-4-yl)methoxy)pyridin-4-yl)propanoic acid] |
| 91% |  | COc1cc(N2CCC(COc3cc(C(CC(=O)O)C4CC4)ccn3)CC2)c(C(=O)N(CC(C)(C)C)c2cccc(C)n2)cc1F (stereo not shown) [Example 250, 3-cyclopropyl-3-(2-((1-(2-((2,2-dimethylpropyl)(6-methylpyridin-2-yl)carbamoyl)-4-fluoro-5-methoxyphenyl)piperidin-4-yl)methoxy)pyridin-4-yl)propanoic acid] |
| 96% |  | COc1ccc(C(=O)N(CC2CC2(F)F)c2ccccn2)c(N2CCC(COc3cc(C(CC(=O)O)C4CC4)ccn3)CC2)c1 (stereo not shown) [Example 139, 3-cyclopropyl-3-(2-((1-(2-(((2,2-difluorocyclopropyl)methyl)(pyridin-2-yl)carbamoyl)-5-methoxyphenyl)piperidin-4-yl)methoxy)pyridin-4-yl)propanoic acid] |
| 100% |  | COc1ccc(C(=O)N(CC(F)(F)F)c2nc(C)cc(C)n2)c(N2CCC(COc3cc(C(CC(=O)O)C4CC4)ccn3)CC2)c1 (stereo not shown) [Example 168, 3-cyclopropyl-3-(2-((1-(2-((4,6-dimethylpyrimidin-2-yl)(2,2,2-trifluoroethyl)carbamoyl)-5-methoxyphenyl)piperidin-4-yl)methoxy)pyridin-4-yl)propanoic acid] |
| 98% |  | COc1ccc(C(=O)N(CC(C)C)c2ccccc2)c(N2CCC(COc3cc(C(CC(=O)O)C4CC4)ccn3)CC2)c1 (stereo not shown) [Example 133, 3-cyclopropyl-3-(2-((1-(5-methoxy-2-((2-methylpropyl)(phenyl)carbamoyl)phenyl)piperidin-4-yl)methoxy)pyridin-4-yl)propanoic acid] |
| 6% |  | COc1ccc(C(=O)N(CC(C)(C)C)c2ccccn2)c(N2CC[C@@H](COc3cccc(C(CC(=O)O)C4CC4)c3)[C@@H](C)C2)c1 (stereo partly drawn) [Example 280, (3S)-cyclopropyl-3-(3-(((3R,4R)-1-(2-((2,2-dimethylpropyl) (pyridin-2-yl)carbamoyl)-5-methoxyphenyl)-3-methylpiperidin-4-yl)methoxy)phenyl)-propanoic acid] |
| 95% |  | COc1ccc(C(=O)N(c2ccccn2)C(C)C(C)C)c(N2CCC(COc3cc(C(CC(=O)O)C4CC4)ccn3)CC2)c1 (stereo not shown) [Example 121, 3-cyclopropyl-3-(2-((1-(5-methoxy-2-((3-methylbutan-2-yl)(pyridin-2-yl)carbamoyl)phenyl)piperidin-4-yl)methoxy)pyridin-4-yl)propanoic acid] |
|  | 104% | COc1ccc(C(=O)N(CC(C)(C)C)c2cccc(C)n2)c(N2CCC(COc3cc(C(CC(=O)O)C4CC4)ccn3)CC2)c1 (stereo not shown) [Example 110, 3-cyclopropyl-3-(2-((1-(2-((2,2-dimethylpropyl)(6-methylpyridin-2-yl)carbamoyl)-5-methoxyphenyl)piperidin-4-yl)methoxy)pyridin-4-yl)propanoic acid] |
